Paper PMC11215077, “Antiviral activity of temporin-1CEb analogues against gingival infection with herpes simplex virus type 1” (Frontiers in Oral Health, 2024)
Converted amounts (≈) assume the structure as drawn. Read-outs that look alike come from different tables or passages of the source. Square brackets hold non-standard residues; d marks the D form. Peptide text beside a SMILES is read from it. AEEA = NCCOCCOCC(=O)O

Columns and labels:
HSV-1 [1] = assay: Antiviral activity in 3D organotypic model of human gingiva (OTG); assay type: cell-based, herpes simplex virus type 1; conditions: 15 μg/ml; H&E stained sections; Figure 5A
Protocol: Protocol was described previously ([34]). Briefly, to prepare 3D cultures, 150,000 gingival fibroblasts suspended in 10% FBS in DMEM were mixed with 2.4 ml of ice-cold Matrigel® (Corning) (final concentration 7 mg/ml) and placed in the middle of 12-well cell culture inserts (Greiner). Three days later, 1 × 10^6 TIGK cells suspended in EPM1 were added to the top of the insert. On the ninth day after the start of the procedure, the old culture medium was removed and EPM2 was added to the bottom of the insert. The epithelial layer on the top was exposed to the air, which promotes epithelial differentiation and then stratification. About 8–10 days after air-liquid interphase, 3D cultures of gingiva were used for further experiments.
The apical surface of OTG model was washed three times with PBS and then inoculated with 100 μl of viral stock (TCID50 400 /ml) in the presence of DAL-PEG-LK6 or CPP1-PEG-LK6 (15 μg/ml) for 2 h at 4°C. Following incubation, the unbound HSV-1 was removed by washing with PBS for 10 min at 37°C, and the OTG cultures were maintained at an air-liquid interface for the rest of the experiment. To determine viral yield, 120 μl of PBS was applied to the apical surface of the OTG, and harvested for DNA isolation after 10 min of incubation at 37°C.
Briefly, cell inserts were fixed in 10% formaldehyde at 4°C for 1 h. After embedding in paraffin, 3D cultures were cut into 5 μm sections and stained with H&E solution. For immunohistochemical analysis, slides were incubated for 1 h at room temperature in blocking buffer (5% normal goat serum, 0.1% saponin in PBS) and stained with primary antibodies anti-HSV-1 (1:100, 1% normal goat serum, 0.1% saponin in PBS; Abcam) and secondary antibodies: goat anti-rabbit conjugated with Alexa Fluor 488 (1:2000; Cell Signaling). Finally, cell nuclei were stained with ProLong Antifade Mounting Medium with DAPI. Slides were visualized with EVOS FL Cell Imaging System (Thermo Fisher Scientific).
(§1) Viral DNA was isolated from the conditioned media or the apical washes of inserts (OTG model) using Viral DNA/RNA Isolation Kit (A&A Biotechnology). The virus yield assessed by quantitative real-time PCR (qPCR). The reaction was carried out in a CFX96 Touch Real-Time PCR Detection System (Bio-Rad), in a 10 μl reaction mixture consisting of TaqMan^TM Fast Advanced Master Mix, TaqMan^TM Microbe Detection assay against HSV-1 (Vi04230116_s1) and 1 μl of viral DNA. The temperature profile was 10 s at 95°C, followed by 40 cycles of 3 s at 95°C and 20 s at 60°C. DNA quantification standards were prepared. In summary, a fragment of viral DNA was amplified using the primers listed above and cloned into the pTZ57R/T plasmid using the InsTAclone PCR cloning kit. The plasmid was propagated in E. coli, purified with the GeneJet Plasmid Miniprep Kit, and digested with the EcoR1 restriction enzyme. The number of copies per mL was estimated after the concentration of linearized DNA was assessed spectrophotometrically.

HSV-1 [2] = conditions: concentration reducing viral replication by 50%; TIGKs cells pre-treated, infected and cultivated with compound; qPCR; mean of two independent experiments
Protocol: Data were expressed as means ± SD. Statistical significance was determined using unpaired t-test, one-way ANOVA, and/or two-way ANOVA for direct comparisons between single groups. A p-value <0.05 was considered statistically significant. We used GrapPad Prism 10 software for the analyses. […]

[3] = Analytical RP-HPLC retention time; conditions: Phenomenex Jupiter 4 μ Proteo 90 Å, 250 × 4.60 mm, listed as basic physicochemical characteristic
Protocol: The synthesized compounds were then purified by reverse-phase high-performance liquid chromatography (RP-HPLC) on a Waters system (Phenomenex Jupiter 4 μ Proteo 90 Å column, 250 × 10 mm). A linear gradient from 10% to 80% of solvent B over 60 min (Solvent A: 0.1% TFA in water; Solvent B: 80% acetonitrile in Solvent A) was employed with a flow rate 5 ml/min. The homogeneity of the final peptide fractions was analyzed using a Shimadzu HPLC System (Shimadzu Europe GmbH, Duisburg, Germany) equipped with a Phenomenex Jupiter 4 μ Proteo 90 Å column, 250 × 4.60 mm. The mass spectra of the synthesized peptides were recorded using a Biflex III MALDI-TOF mass spectrometry (Bruker, Mannheim, Germany) with α-cyano-4-hydroxy-cinnamic acid (CCA) or 2,5-dihydroxybenzoic acid (DHB) used as the matrix.

HSV-1 [4] = assay: Virus inhibition (replication) assay in Vero E6 and TIGKs cells, qPCR, titration, gB Western blot; assay type: cell-based, herpes simplex virus type 1; conditions: 48 h p.i.
Protocol: HSV-1 stocks were generated by infecting Vero E6 cells. Cells were lysed at 48 h p.i. by two freeze-thaw cycles. The virus containing fluid was aliquoted and stored at −80°C. A control Vero E6 cell lysate from mock-infected cells was prepared in the same manner as the virus stock. Virus yield was assessed by virus titration on fully confluent Vero E6 cells in 96-well plates, according to the method of Reed & Muench ([32]). Plates were incubated at 37°C for 48 h and the occurrence of a cytopathic effect was scored using an inverted microscope, and TCID50 (50% tissue culture infection dose) was calculated.
Vero E6 or TIGKs cells were seeded in 12-well plates and cultured for 48 h. […] After 30 min of incubation at 37°C, cells were infected with HSV-1 at TCID50 400 /ml or treated with mock. After 2 h of infection at 37°C, unbound viral particles were removed by washing with PBS, and culture media supplemented with peptide conjugates were applied. Following 48 h of incubation, media were collected, and the quantity of HSV-1 DNA copies was assessed using titration and qPCR.
as §1
Protein extracts were prepared using lysis buffer (0.25% Na-deoxycholate, 0.5% Nonidet P-40, 0.05% SDS, protease inhibitor mixture, 2.5 mM EDTA in PBS), and the protein concentration was assessed using Pierce BCA (Thermo Fisher) protein assay kit. Equal amounts of cell extracts were separated on 10% SDS-PAGE gel and electrotransferred onto polyvinylidene difluoride membranes for gB and β-actin in transfer buffer (25 mM Tris, 0.2 M glycine, and 20% ethanol) for 90 min at 100 V. Nonspecific binding sites were blocked for 90 min in 5% skimmed milk prepared in TBST buffer (20 mM Tris, pH 7.5, 0.5 M NaCl, 0.05% Tween 20). Membranes were further incubated overnight at 4°C with primary antibodies: mouse anti-HSV-1 + HSV-2 gB (1:5000; abcam) and mouse anti-β-actin (1:4,000; BD Biosciences). The following day, membranes were washed three times with TBST buffer and incubated with HRP-conjugated secondary antibodies for 60 min at 37°C: goat anti-mouse IgG (1:20,000; β-actin; BD Bioscience) or sheep anti-mouse IgG (1:50,000; gB; Sigma Aldrich). Next, blots were washed five times for 5 min in TBST buffer, developed using Luminata Cresecendo Substarte (Merck) and exposed to AGFA medical x-ray film. Densitometry analysis was performed using ImageJ 1.52q software.

HSV-1 [5] = test system: HSV-1; parameters: method as in PMID 29483113; conditions: different model of epithelial cells; cited from earlier work
Text: In our studies, we initially utilized the Vero E6 cell line, which has been a long-standing choice in herpesviruses research ([40], [41]).

Protocol for in vitro: The viability of Vero E6 and TIGKs cells was examined by the XTT Cell Viability Assay kit (Biological Industries, USA). Briefly, cells were treated with indicated concentrations of the peptide conjugates for 48 h at 37°C. Next, the fresh medium was added to the cells and 50 μl of the activated XTT reagent [2,3-bis(2-methoxy-4-nitro-5-sulphenyl)-2H-tetrazolium-5-carboxanilide] was added and further incubated for 2 h at 37°C. Absorbance was measured at a wavelength of 480 nm using FlexStation 3 microplate reader (Molecular Device, Wokingham, UK). The results were expressed normalized against a control of untreated cells (100% viability). To assess the effect of peptide conjugate on the integrity of the plasma membrane, the LDH release assay was performed using the CytoTox96 nonradioactive cytotoxicity assay kit (Promega, Madison, WI, USA) according to the manufacturer's instructions. Cytotoxicity was calculated with the formula: % cytotoxicity = 100 × (experimental LDH release/ maximum LDH release), where maximum LDH release is after lysis solution addition (Triton X-100). Relative amounts of LDH release were measured (absorbance at 490 nm) using FlexStation 3 microplate reader (Molecular Device, Wokingham, UK). […]
Data were expressed as means ± SD. Statistical significance was determined using unpaired t-test, one-way ANOVA, and/or two-way ANOVA for direct comparisons between single groups. […]

CC[C@H](C)[C@H](NC(=O)COCCOCCNC(=O)[C@H](CCCNC(=N)N)NC(=O)[C@H](CC(C)C)NC(=O)[C@H](Cc1ccccc1)NC(=O)CNC(=O)[C@@H](C)NC(=O)[C@@H](N)Cc1ccc(O)cc1)C(=O)N[C@@H](CCCCN)C(=O)N[C@@H](CCCCN)C(=O)N[C@H](C(=O)N[C@@H](CC(C)C)C(=O)N[C@@H](CO)C(=O)N[C@H](CCCCN)C(=O)N[C@H](C(=O)N[C@@H](CCCCN)C(=O)N[C@@H](CCCCN)C(=O)N[C@@H](CC(C)C)C(=O)N[C@@H](CC(C)C)C(N)=O)[C@@H](C)CC)[C@@H](C)CC [DAL-PEG-DK5] (H-Y[dA]GFLR[AEEA]IKKILS[dK]IKKLL-NH2)
morphology of epithelial cells in OTG (H&E) (HSV-1 [1]): no changes in the morphology of epithelial cells

CC[C@H](C)[C@H](NC(=O)COCCOCCNC(=O)[C@H](CCCNC(=N)N)NC(=O)[C@H](CC(C)C)NC(=O)[C@H](Cc1ccccc1)NC(=O)CNC(=O)[C@@H](C)NC(=O)[C@@H](N)Cc1ccc(O)cc1)C(=O)N[C@@H](CCCCN)C(=O)N[C@@H](CCCCN)C(=O)N[C@H](C(=O)N[C@@H](CC(C)C)C(=O)N[C@@H](CO)C(=O)N[C@@H](CCCCN)C(=O)N[C@H](C(=O)N[C@@H](CCCCN)C(=O)N[C@@H](CCCCN)C(=O)N[C@@H](CC(C)C)C(=O)N[C@@H](CC(C)C)C(=O)N[C@@H](CCCCN)C(N)=O)[C@@H](C)CC)[C@@H](C)CC [DAL-PEG-LK6] (H-Y[dA]GFLR[AEEA]IKKILSKIKKLLK-NH2)
CC50 at 48 h (in vitro): 33.8 µg/mL (≈ 14.1 µM) | IC50 (HSV-1 [2]): 3.699 µg/mL (≈ 1.54 µM)

RKKRRQRRR-O2Oc-IKKILSKIKKLLK-NH2 [CPP2-PEG-LK6, conjugate of cationic cell-penetrating peptide (HIV-1 TAT49–57 fragment) with LK6 via PEG linker]
Rt [3]: 20.094 | reduction in viral yield in the qPCR test (HSV-1 [4]; Figure 1C, Vero E6 (DAL-PEG-LK6 and CPP1-PEG-LK6 25 μg/ml; CPP2-PEG-LK6 10 μg/ml) and TIGKs cells (15 μg/ml)): 1 log | reduction of virus replication in titration assay (HSV-1 [4]; Figure 1D, both cell models (Vero E6, TIGKs), normalized to untreated control): 97%

temporin B
IC50 (HSV-1 [5]): 93 µg/mL
